Tests used:
Assay in all cases: DiscoverX KINOMEscan kinase profiling (468 assays)
Type in all cases: binding
human kinome [1] = molecular target: human kinome (Homo sapiens, UniProt O14936); conditions: CASK; 100 nM; read-out: Percent Control
Procedure, shortened: (§1)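 DNA-tagged kinases competed for immobilized biotinylated ligands on streptavidin magnetic beads, with bound kinase quantified by qPCR. VIP152 in DMSO was tested against a DMSO control.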

human kinome [2] = molecular target: human kinome (Homo sapiens, UniProt O75914); conditions: read-out: Percent Control
Procedure, shortened: as §1

human kinome [3] = molecular target: human kinome (Homo sapiens, UniProt O96013); conditions: read-out: Percent Control
Procedure, shortened: as §1

human kinome [4] = molecular target: human kinome (Homo sapiens, UniProt P19784); conditions: CSNK2A2; 100 nM; read-out: Percent Control
Procedure, shortened: as §1

human kinome [5] = molecular target: human kinome (Homo sapiens, UniProt P21802); conditions: FGFR2; 100 nM; read-out: Percent Control
Procedure, shortened: as §1

human kinome [6] = molecular target: human kinome (Homo sapiens, UniProt P24723); conditions: read-out: Percent Control
Procedure, shortened: as §1

human kinome [7] = molecular target: human kinome (Homo sapiens, UniProt P36888, K663Q); conditions: FLT3(K663Q); 100 nM; read-out: Percent Control
Procedure, shortened: as §1

human kinome [8] = molecular target: human kinome (Homo sapiens, UniProt P42336, H1047L); conditions: read-out: Percent Control
Procedure, shortened: as §1

human kinome [9] = molecular target: human kinome (Homo sapiens, UniProt P78356); conditions: read-out: Percent Control
Procedure, shortened: as §1

human kinome [10] = molecular target: human kinome (Homo sapiens, UniProt Q00536); conditions: read-out: Percent Control
Procedure, shortened: as §1

human kinome [11] = molecular target: human kinome (Homo sapiens, UniProt Q00537); conditions: read-out: Percent Control
Procedure, shortened: as §1

human kinome [12] = molecular target: human kinome (Homo sapiens, UniProt Q02763); conditions: kinase TIE2 (Entrez TEK); compound concentration 1000 nM; read-out: Percent Control
Procedure, shortened: as §1

human kinome [13] = molecular target: human kinome (Homo sapiens, UniProt Q04771); conditions: ACVR1; 100 nM; read-out: Percent Control
Procedure, shortened: as §1

human kinome [14] = molecular target: human kinome (Homo sapiens, UniProt Q04912); conditions: MST1R; 100 nM; read-out: Percent Control
Procedure, shortened: as §1

human kinome [15] = molecular target: human kinome (Homo sapiens, UniProt Q08345); conditions: DDR1; 100 nM; read-out: Percent Control
Procedure, shortened: as §1

human kinome [16] = molecular target: human kinome (Homo sapiens, UniProt Q13164); conditions: ERK5 (Entrez MAPK7); 100 nM; read-out: Percent Control
Procedure, shortened: as §1

human kinome [17] = molecular target: human kinome (Homo sapiens, UniProt Q13554); conditions: CAMK2B; 100 nM; read-out: Percent Control
Procedure, shortened: as §1

human kinome [18] = molecular target: human kinome (Homo sapiens, UniProt Q56UN5); conditions: kinase YSK4 (Entrez MAP3K19); compound concentration 1000 nM; read-out: Percent Control
Procedure, shortened: as §1

human kinome [19] = molecular target: human kinome (Homo sapiens, UniProt Q7KZI7); conditions: MARK2; 100 nM; read-out: Percent Control
Procedure, shortened: as §1

human kinome [20] = molecular target: human kinome (Homo sapiens, UniProt Q8IVW4); conditions: CDKL3; 100 nM; read-out: Percent Control
Procedure, shortened: as §1

human kinome [21] = molecular target: human kinome (Homo sapiens, UniProt Q8IWQ3); conditions: BRSK2; 100 nM; read-out: Percent Control
Procedure, shortened: as §1

human kinome [22] = molecular target: human kinome (Homo sapiens, UniProt Q8IY84); conditions: read-out: Percent Control
Procedure, shortened: as §1

human kinome [23] = molecular target: human kinome (Homo sapiens, UniProt Q8NEV4); conditions: read-out: Percent Control
Procedure, shortened: as §1

human kinome [24] = molecular target: human kinome (Homo sapiens, UniProt Q99558); conditions: read-out: Percent Control
Procedure, shortened: as §1

human kinome [25] = molecular target: human kinome (Homo sapiens, UniProt Q9BUB5); conditions: MKNK1; 100 nM; read-out: Percent Control
Procedure, shortened: as §1

human kinome [26] = molecular target: human kinome (Homo sapiens, UniProt Q9NRP7); conditions: kinase STK36 (Entrez STK36); compound concentration 1000 nM; read-out: Percent Control
Procedure, shortened: as §1

human kinome [27] = molecular target: human kinome (Homo sapiens, UniProt Q9Y2H1); conditions: read-out: Percent Control
Procedure, shortened: as §1

human kinome [28] = molecular target: human kinome (Homo sapiens, UniProt Q9Y5S2); conditions: MRCKB (Entrez CDC42BPB); 100 nM; read-out: Percent Control
Procedure, shortened: as §1

human kinome [29] = molecular target: human kinome (Homo sapiens, UniProt Q9Y6M4); conditions: CSNK1G3; 100 nM; read-out: Percent Control
Procedure, shortened: as §1

Sequence of human kinome (Homo sapiens, UniProt Q00537) (Q00537 whole entry): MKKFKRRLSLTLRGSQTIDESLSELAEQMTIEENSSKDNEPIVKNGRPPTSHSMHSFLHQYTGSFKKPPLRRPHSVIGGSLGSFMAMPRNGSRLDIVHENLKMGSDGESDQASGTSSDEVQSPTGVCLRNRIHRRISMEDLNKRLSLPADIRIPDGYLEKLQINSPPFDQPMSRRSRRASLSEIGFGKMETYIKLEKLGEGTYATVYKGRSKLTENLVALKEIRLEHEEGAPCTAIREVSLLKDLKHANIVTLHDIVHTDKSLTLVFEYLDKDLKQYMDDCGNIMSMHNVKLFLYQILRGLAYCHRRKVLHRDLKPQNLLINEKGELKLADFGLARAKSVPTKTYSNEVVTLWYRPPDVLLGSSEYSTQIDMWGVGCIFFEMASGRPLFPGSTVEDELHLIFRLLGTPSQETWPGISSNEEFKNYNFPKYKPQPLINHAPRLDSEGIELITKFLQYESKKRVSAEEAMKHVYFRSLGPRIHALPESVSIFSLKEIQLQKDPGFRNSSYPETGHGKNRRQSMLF
Sequence of human kinome (Homo sapiens, UniProt Q9Y2H1) (Q9Y2H1 whole entry): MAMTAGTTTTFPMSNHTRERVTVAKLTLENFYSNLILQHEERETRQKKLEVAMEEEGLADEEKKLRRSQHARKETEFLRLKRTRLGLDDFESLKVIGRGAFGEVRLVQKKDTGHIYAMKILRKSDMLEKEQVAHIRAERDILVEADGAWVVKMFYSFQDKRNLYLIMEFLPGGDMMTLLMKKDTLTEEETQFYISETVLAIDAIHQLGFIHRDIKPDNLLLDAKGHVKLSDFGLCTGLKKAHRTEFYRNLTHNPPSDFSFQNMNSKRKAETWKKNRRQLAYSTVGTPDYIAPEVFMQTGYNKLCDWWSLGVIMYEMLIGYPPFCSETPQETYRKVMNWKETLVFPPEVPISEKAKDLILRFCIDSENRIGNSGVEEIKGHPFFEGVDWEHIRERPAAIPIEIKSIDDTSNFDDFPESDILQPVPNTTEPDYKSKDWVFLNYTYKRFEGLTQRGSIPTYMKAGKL
Sequence of human kinome (Homo sapiens, UniProt P78356) (P78356 whole entry): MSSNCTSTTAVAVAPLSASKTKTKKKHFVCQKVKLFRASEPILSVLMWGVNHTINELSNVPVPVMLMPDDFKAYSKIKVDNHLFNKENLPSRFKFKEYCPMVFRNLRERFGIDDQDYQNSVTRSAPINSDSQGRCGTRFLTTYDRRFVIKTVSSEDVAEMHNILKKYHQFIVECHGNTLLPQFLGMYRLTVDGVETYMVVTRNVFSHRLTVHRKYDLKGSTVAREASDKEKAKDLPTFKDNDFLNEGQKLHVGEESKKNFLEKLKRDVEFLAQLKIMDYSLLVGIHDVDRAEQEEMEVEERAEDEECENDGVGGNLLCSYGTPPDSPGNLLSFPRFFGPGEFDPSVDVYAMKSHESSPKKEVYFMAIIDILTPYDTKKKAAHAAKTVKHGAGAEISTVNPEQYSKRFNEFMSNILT
Sequence of human kinome (Homo sapiens, UniProt Q8NEV4) (Q8NEV4 whole entry): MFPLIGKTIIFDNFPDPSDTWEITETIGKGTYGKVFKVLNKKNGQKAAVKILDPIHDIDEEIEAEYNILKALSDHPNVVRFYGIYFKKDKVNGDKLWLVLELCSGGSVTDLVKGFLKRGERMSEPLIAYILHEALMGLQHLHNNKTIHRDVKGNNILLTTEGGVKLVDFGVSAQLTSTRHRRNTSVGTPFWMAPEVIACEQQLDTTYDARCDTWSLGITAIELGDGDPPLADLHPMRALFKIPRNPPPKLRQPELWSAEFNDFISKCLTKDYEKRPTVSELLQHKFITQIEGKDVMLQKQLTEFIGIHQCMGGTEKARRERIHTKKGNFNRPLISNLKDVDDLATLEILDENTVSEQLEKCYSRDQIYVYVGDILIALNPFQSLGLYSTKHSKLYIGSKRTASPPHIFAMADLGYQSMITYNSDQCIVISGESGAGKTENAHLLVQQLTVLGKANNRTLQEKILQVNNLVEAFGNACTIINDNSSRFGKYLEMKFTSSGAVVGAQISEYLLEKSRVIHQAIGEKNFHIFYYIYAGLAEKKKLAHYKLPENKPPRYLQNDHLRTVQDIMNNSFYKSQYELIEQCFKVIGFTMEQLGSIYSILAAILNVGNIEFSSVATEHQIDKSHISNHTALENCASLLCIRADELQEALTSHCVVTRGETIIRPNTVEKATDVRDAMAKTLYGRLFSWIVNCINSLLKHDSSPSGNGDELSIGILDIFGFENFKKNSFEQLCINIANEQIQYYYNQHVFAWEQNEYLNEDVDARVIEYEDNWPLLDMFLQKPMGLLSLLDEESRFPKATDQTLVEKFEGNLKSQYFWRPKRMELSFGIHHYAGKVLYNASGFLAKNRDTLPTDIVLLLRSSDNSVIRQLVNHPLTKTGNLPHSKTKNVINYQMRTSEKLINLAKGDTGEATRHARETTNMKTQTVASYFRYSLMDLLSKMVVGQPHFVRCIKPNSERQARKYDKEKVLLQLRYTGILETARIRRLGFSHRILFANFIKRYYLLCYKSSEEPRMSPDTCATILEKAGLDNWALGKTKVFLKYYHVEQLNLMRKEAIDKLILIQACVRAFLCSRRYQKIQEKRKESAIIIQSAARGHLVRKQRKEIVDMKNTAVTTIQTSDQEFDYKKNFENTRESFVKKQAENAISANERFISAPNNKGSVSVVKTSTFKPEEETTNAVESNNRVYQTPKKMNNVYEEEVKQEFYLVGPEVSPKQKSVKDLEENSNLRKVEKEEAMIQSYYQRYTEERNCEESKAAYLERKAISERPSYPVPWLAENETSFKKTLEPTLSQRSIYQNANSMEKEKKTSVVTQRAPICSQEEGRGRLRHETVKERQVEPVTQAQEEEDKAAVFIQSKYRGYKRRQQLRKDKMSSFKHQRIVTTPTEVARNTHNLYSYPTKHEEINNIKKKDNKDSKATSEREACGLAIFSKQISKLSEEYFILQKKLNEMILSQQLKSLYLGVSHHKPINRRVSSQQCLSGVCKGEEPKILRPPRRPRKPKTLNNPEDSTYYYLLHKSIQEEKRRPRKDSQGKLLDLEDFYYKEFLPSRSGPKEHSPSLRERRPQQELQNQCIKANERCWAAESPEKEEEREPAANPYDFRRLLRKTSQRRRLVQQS
Sequence of human kinome (Homo sapiens, UniProt P42336, H1047L) (P42336 whole entry H1047L): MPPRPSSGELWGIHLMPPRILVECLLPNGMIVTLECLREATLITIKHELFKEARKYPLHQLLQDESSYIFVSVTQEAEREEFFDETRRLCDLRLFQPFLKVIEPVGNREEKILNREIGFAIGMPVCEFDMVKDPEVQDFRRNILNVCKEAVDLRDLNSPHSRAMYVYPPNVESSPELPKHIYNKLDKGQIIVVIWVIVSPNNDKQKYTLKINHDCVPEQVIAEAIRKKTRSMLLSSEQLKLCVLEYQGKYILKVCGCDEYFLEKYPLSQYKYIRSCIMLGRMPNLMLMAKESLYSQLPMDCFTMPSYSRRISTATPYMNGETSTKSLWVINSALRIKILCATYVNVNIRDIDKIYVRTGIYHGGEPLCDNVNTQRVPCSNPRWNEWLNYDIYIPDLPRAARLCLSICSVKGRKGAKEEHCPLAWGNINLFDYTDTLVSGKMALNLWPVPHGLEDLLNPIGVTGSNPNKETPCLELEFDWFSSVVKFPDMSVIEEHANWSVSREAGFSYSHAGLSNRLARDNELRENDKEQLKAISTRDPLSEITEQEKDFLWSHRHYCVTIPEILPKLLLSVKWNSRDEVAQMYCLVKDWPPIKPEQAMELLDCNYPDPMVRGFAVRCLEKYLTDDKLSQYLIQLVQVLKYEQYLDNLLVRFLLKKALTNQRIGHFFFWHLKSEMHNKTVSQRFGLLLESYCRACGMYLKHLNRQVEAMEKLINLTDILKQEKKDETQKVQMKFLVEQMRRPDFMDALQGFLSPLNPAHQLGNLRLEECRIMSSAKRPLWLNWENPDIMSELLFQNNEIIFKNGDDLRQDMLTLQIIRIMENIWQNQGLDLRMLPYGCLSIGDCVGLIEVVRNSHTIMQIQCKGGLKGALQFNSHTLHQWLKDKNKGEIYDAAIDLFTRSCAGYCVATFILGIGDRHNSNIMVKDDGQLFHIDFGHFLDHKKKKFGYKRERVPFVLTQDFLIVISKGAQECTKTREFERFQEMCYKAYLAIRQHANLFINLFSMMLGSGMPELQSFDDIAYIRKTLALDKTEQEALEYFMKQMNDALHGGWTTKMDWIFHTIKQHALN
Sequence of human kinome (Homo sapiens, UniProt P24723) (P24723 whole entry): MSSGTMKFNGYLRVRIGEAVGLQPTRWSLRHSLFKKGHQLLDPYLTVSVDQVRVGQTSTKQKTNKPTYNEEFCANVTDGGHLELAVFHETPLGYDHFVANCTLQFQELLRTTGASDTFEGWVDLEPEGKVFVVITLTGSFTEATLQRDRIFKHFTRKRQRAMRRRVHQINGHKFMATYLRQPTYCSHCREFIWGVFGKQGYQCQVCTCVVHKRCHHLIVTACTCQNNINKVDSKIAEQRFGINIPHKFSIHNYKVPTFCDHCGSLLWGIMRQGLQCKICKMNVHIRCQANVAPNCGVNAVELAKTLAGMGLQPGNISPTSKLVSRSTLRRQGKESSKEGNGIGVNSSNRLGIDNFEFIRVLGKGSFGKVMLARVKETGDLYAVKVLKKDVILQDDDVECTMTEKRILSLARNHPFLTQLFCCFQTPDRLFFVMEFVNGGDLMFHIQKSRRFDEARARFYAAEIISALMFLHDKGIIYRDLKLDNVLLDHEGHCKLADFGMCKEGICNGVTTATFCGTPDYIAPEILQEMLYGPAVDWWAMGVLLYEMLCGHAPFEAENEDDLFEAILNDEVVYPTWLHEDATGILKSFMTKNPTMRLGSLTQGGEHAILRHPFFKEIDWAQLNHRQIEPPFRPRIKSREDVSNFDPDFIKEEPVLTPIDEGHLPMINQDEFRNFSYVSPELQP

## COc1cc(F)ccc1-c1cc(Nc2cc(CS(C)(=N)=O)ccn2)ncc1F (stereo not shown) [VIP152]
Human kinome [1]
  remaining binding at 0.1 µM: 78%
Human kinome [2]; PAK3, 100 nM
  remaining binding at 0.1 µM: 100%
Human kinome [2]; kinase PAK3 (Entrez PAK3), compound concentration 1000 nM
  remaining binding at 1 µM: 62%
Human kinome [3]; PAK4, 100 nM
  remaining binding at 0.1 µM: 100%
Human kinome [3]; kinase PAK4 (Entrez PAK4), compound concentration 1000 nM
  remaining binding at 1 µM: 89%
Human kinome [4]
  remaining binding at 0.1 µM: 100%
Human kinome [5]
  remaining binding at 0.1 µM: 100%
Human kinome [6]; PRKCH, 100 nM
  remaining binding at 0.1 µM: 100%
Human kinome [6]; kinase PRKCH (Entrez PRKCH), compound concentration 1000 nM
  remaining binding at 1 µM: 94%
Human kinome [7]
  remaining binding at 0.1 µM: 100%
Human kinome [8]; PIK3CA(H1047L), 100 nM
  remaining binding at 0.1 µM: 100%
Human kinome [8]; kinase PIK3CA(H1047L) (Entrez PIK3CA), compound concentration 1000 nM
  remaining binding at 1 µM: 100%
Human kinome [9]; PIP5K2B (Entrez PIP4K2B), 100 nM
  remaining binding at 0.1 µM: 100%
Human kinome [9]; kinase PIP5K2B (Entrez PIP4K2B), compound concentration 1000 nM
  remaining binding at 1 µM: 100%
Human kinome [10]; PCTK1 (Entrez CDK16), 100 nM
  remaining binding at 0.1 µM: 83%
Human kinome [10]; kinase PCTK1 (Entrez CDK16), compound concentration 1000 nM
  remaining binding at 1 µM: 24%
Human kinome [11]; PCTK2 (Entrez CDK17), 100 nM
  remaining binding at 0.1 µM: 100%
Human kinome [11]; kinase PCTK2 (Entrez CDK17), compound concentration 1000 nM
  remaining binding at 1 µM: 54%
Human kinome [12]
  remaining binding at 1 µM: 86%
Human kinome [13]
  remaining binding at 0.1 µM: 100%
Human kinome [14]
  remaining binding at 0.1 µM: 100%
Human kinome [15]
  remaining binding at 0.1 µM: 99%
Human kinome [16]
  remaining binding at 0.1 µM: 100%
Human kinome [17]
  remaining binding at 0.1 µM: 100%
Human kinome [18]
  remaining binding at 1 µM: 19%
Human kinome [19]
  remaining binding at 0.1 µM: 100%
Human kinome [20]
  remaining binding at 0.1 µM: 100%
Human kinome [21]
  remaining binding at 0.1 µM: 99%
Human kinome [22]; NIM1 (Entrez MGC42105), 100 nM
  remaining binding at 0.1 µM: 100%
Human kinome [22]; kinase NIM1 (Entrez MGC42105), compound concentration 1000 nM
  remaining binding at 1 µM: 86%
Human kinome [23]; MYO3A, 100 nM
  remaining binding at 0.1 µM: 100%
Human kinome [23]; kinase MYO3A (Entrez MYO3A), compound concentration 1000 nM
  remaining binding at 1 µM: 90%
Human kinome [24]; NIK (Entrez MAP3K14), 100 nM
  remaining binding at 0.1 µM: 87%
Human kinome [24]; kinase NIK (Entrez MAP3K14), compound concentration 1000 nM
  remaining binding at 1 µM: 88%
Human kinome [25]
  remaining binding at 0.1 µM: 94%
Human kinome [26]
  remaining binding at 1 µM: 84%
Human kinome [27]; NDR2 (Entrez STK38L), 100 nM
  remaining binding at 0.1 µM: 100%
Human kinome [27]; kinase NDR2 (Entrez STK38L), compound concentration 1000 nM
  remaining binding at 1 µM: 100%
Human kinome [28]
  remaining binding at 0.1 µM: 100%
Human kinome [29]
  remaining binding at 0.1 µM: 98%

From PMC9898036, “VIP152 is a selective CDK9 inhibitor with pre-clinical in vitro and in vivo efficacy in chronic lymphocytic leukemia” (Leukemia, 2022)
